Data on one compound can be found in ChEMBL document CHEMBL3526031, “Mechanistic studies on the absorption and disposition of scutellarin in humans: selective OATP2B1-mediated hepatic uptake is a likely key determinant for its unique pharmacokinetic characteristics” (Drug Metab Dispos, 2012).

For data set [1], the system named is Liver microsome. Briefly: Ratio of Vmax to Km for drug metabolism in rat liver microsomes assessed as formation of scutellarein-7-O-glucuronide after 7 mins by HPLC/UV analysis. The format is ADME. On the technique in general: Microsomes from liver hold many membrane-bound enzymes, among them those of drug oxidation.
Data set [2] in a line: Drug metabolism in human intestinal microsomes assessed as formation of scutellarein-6-O-glucuronide after 7 mins by HPLC/UV analysis. The format is ADME, Intestine, Microsome.
Data set [3] concerns Liver microsome. As to the kind of experiment: Drug metabolism in human liver microsomes assessed as formation of scutellarein-6-O-glucuronide after 7 mins by HPLC/UV analysis. The class given is ADME.
Data set [4] is described as follows: Ratio of Vmax to Km for drug metabolism in human intestinal microsomes assessed as formation of scutellarein-6-O-glucuronide after 7 mins by HPLC/UV analysis. The class given is ADME, Intestine, Microsome.
For data set [5], the system named is Liver microsome. Briefly: Ratio of Vmax to Km for drug metabolism in human liver microsomes assessed as formation of scutellarein-6-O-glucuronide after 7 mins by HPLC/UV analysis. The format is ADME.
For data set [6], the system named is Liver microsome. Briefly: Drug metabolism in rat liver microsomes assessed as formation of scutellarein-6-O-glucuronide after 7 mins by HPLC/UV analysis. The class given is ADME.
Data set [7] has as its system Liver microsome. Briefly: Ratio of Vmax to Km for drug metabolism in rat liver microsomes assessed as formation of scutellarein-6-O-glucuronide after 7 mins by HPLC/UV analysis. The class given is ADME.
The nature of data set [8]: Drug metabolism in human intestinal microsomes assessed as formation of scutellarein-7-O-glucuronide after 7 mins by HPLC/UV analysis. The format is ADME, Intestine, Microsome.
The subject of data set [9] is Liver microsome. Briefly: Drug metabolism in human liver microsomes assessed as formation of scutellarein-7-O-glucuronide after 7 mins by HPLC/UV analysis. The format is ADME.
Data set [10] can be described thus: Drug metabolism in rat intestinal microsomes assessed as formation of scutellarein-7-O-glucuronide after 7 mins by HPLC/UV analysis. The class given is ADME, Intestine, Microsome.
The subject of data set [11] is Liver microsome. Briefly: Drug metabolism in rat liver microsomes assessed as formation of scutellarein-7-O-glucuronide after 7 mins by HPLC/UV analysis. The format is ADME.
In data set [12] the target is T1, UDP-glucuronosyltransferase 1A1 (Homo sapiens, UniProt P22309).
T1 sequence (P22309 whole entry): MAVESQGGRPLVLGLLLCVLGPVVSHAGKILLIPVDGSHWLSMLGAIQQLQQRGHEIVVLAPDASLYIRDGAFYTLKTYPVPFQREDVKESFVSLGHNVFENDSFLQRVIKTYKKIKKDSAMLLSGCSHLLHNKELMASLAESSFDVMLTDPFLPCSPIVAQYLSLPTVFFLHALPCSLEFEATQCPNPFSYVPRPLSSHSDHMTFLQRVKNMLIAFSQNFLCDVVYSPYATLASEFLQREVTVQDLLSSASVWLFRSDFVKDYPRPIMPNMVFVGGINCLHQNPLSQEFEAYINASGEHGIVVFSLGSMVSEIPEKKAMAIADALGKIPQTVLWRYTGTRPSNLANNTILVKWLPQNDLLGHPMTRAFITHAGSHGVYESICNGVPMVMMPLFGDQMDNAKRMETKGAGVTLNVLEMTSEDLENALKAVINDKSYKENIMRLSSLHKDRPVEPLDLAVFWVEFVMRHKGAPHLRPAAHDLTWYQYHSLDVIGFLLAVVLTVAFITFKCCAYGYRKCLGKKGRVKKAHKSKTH
As to the kind of experiment: Drug metabolism assessed as human recombinant UGT1A1-mediated formation of scutellarein-7-O-glucuronide after 25 mins by HPLC/UV analysis. The format is ADME.

The nature of data set [13]: Ratio of Vmax to Km for drug metabolism in human intestinal microsomes assessed as formation of scutellarein-7-O-glucuronide after 7 mins by HPLC/UV analysis. The class given is ADME, Intestine, Microsome.
Data set [14] deals with Liver microsome. Briefly: Ratio of Vmax to Km for drug metabolism in human liver microsomes assessed as formation of scutellarein-7-O-glucuronide after 7 mins by HPLC/UV analysis. The class given is ADME.
Data set [15] can be described thus: Ratio of Vmax to Km for drug metabolism in rat intestinal microsomes assessed as formation of scutellarein-7-O-glucuronide after 7 mins by HPLC/UV analysis. The format is ADME, Intestine, Microsome.

Turning to `O=c1cc(-c2ccc(O)cc2)oc2cc(O)c(O)c(O)c12` [SCUTELLAREIN], the Vmax/Km came to 1361 µL/min/mg with Liver microsome [1]; 342 µL/min/mg in [4]; 97.9 µL/min/mg in the data set with Liver microsome [5]; 577 µL/min/mg in the data set with Liver microsome [7]; 924 µL/min/mg in data set [13]; 1368 µL/min/mg in the data set on Liver microsome [14]. In addition, the Vmax/Km in data set [15] came to 1924 µL/min/mg. Further, the Km (usually the substrate concentration at which the rate is half of its maximum) in data set [2] is 7.06 µM; in the data set on Liver microsome [3], 16.2 µM; in the data set on Liver microsome [6] it was 2.86 µM; in data set [8] (human, microsomes, 7 min) it was 5.9 µM; in the data set with Liver microsome [9], 6.32 µM; in data set [10], 9 µM. Besides, in the data set on Liver microsome [11], the Km came out at 7.37 µM. The Vmax (as a rule, the top rate of the reaction or transport when substrate is in excess) is listed as 2.41 nmol/min/mg in data set [2]; 1.59 nmol/min/mg in the data set with Liver microsome [3]; 1.65 nmol/min/mg in the data set on Liver microsome [6]; 5.45 nmol/min/mg in data set [8] (human, microsomes, 7 min); 8.64 nmol/min/mg with Liver microsome [9]; 17.3 nmol/min/mg in [10]. Moreover, the Vmax with Liver microsome [11] worked out at 10 nmol/min/mg. The inhibitory constant (Ki) (in general, the dissociation constant of the complex between target and ligand, obtained from inhibition or displacement) in data set [8] was found to be 401 µM; in [12] it was 41.3 µM.
